From patent US20200207734A1, “HETEROCYCLIC COMPOUND AND USE THEREOF” (Takeda Pharmaceutical Company Limited, priority 2017, published 2020)

Target: T1, human orexin type 2 receptor (Homo sapiens, UniProt O43614)
T1 construct: human orexin type 2 receptor cDNA was inserted into pcDNA3.1(+) plasmid vector (Invitrogen); expressed in transfected cells
T1 sequence (O43614 1-444): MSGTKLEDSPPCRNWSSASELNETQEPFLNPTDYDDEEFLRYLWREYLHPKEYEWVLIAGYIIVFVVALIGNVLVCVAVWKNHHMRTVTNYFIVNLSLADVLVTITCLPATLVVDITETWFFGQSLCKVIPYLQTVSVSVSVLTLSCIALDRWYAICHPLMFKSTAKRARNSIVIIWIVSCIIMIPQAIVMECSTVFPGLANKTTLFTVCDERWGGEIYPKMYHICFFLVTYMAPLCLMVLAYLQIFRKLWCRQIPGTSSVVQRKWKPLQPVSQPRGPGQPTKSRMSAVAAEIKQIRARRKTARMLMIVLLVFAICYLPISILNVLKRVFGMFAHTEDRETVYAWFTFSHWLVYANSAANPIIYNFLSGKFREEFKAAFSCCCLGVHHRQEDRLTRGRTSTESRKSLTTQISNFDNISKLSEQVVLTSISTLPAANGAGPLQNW
Assay: Measurement of orexin type 2 receptor agonist activity (calcium fluorescence, CHO cells expressing hOX2R)
Assay type: cell-based
Settings: test compound 3 μM; CHO cells expressing human OX2 receptor; DMSO = 0%, orexin A (human) = 100%
Summary of the method: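 CHO-dhfr cells stably expressing hOX2R, loaded with Fluo-4 AM in HBSS/20 mM HEPES/0.1% BSA with probenecid, then given test compound. Calcium fluorescence was read for about 2 min 40 sec. Activity (%) was scaled between DMSO (0%) and 10 nM final human orexin A (100%).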

Compound	OX2R agonist activity (3 μM, %) [%]
O=C(C1CCC1)N1CC[C@H](NS(=O)(=O)C2CC2)[C@@H]1Cc1csc(-c2ccccc2)n1 [Example 321, N-((2S,3S)-1-(cyclobutylcarbonyl)-2-((2-phenyl-1,3-thiazol-4-yl)methyl)pyrrolidin-3-yl)cyclopropanesulfonamide]	104
CS(=O)(=O)N[C@H]1CCN(C(=O)C23CC(C2)C3)[C@H]1Cc1cccc(-c2cc(F)cc(F)c2)c1 [Example 307, N-((2S,3S)-1-(bicyclo[1.1.1]pent-1-ylcarbonyl)-2-((3′,5′-difluorobiphenyl-3-yl)methyl)pyrrolidin-3-yl)methanesulfonamide]	102
CC(C)OC(=O)N1CCC[C@H](NS(C)(=O)=O)[C@@H]1Cn1ccc(-c2ccccc2)n1 (relative stereo) [Example 122, isopropyl cis-3-((methylsulfonyl)amino)-2-((3-phenyl-1H-pyrazol-1-yl)methyl)piperidine-1-carboxylate]	82
COC1(C(=O)N2CC[C@H](NS(C)(=O)=O)[C@@H]2Cc2cccc(-c3cccc(F)c3)c2)CCC1 [Example 314, N-((2S,3S)-2-((3′-fluorobiphenyl-3-yl)methyl)-1-((1-methoxycyclobutyl)carbonyl)pyrrolidin-3-yl)methanesulfonamide]	107
COC(=O)N1CCC[C@H](NS(C)(=O)=O)[C@@H]1Cc1ccc(F)c(-c2ccccc2)c1 (relative stereo) [Example 41, methyl cis-2-((6-fluorobiphenyl-3-yl)methyl)-3-((methylsulfonyl)amino)piperidine-1-carboxylate]	67
CCS(=O)(=O)N[C@H]1CCN(C(=O)N(C)C)[C@H]1Cc1cccc(-c2cc(F)cc(F)c2)c1F [Example 399, (2S,3S)-3-((ethylsulfonyl)amino)-N,N-dimethyl-2-((2,3′,5′-trifluorobiphenyl-3-yl)methyl)pyrrolidine-1-carboxamide]	107
CCNC(=O)N1CCC[C@H](NS(C)(=O)=O)[C@@H]1Cc1cccc(O[Si](C(C)C)(C(C)C)C(C)C)c1 (relative stereo) [Example 17, cis-N-ethyl-3-((methylsulfonyl)amino)-2-(3-((triisopropylsilyl)oxy)benzyl)piperidine-1-carboxamide]	29
CCS(=O)(=O)N[C@H]1CCN(C(=O)C(C)(C)O)[C@H]1Cc1cccc(-c2cccc(F)c2)c1F [Example 389, N-((2S,3S)-2-((2,3′-difluorobiphenyl-3-yl)methyl)-1-(2-hydroxy-2-methylpropanoyl)pyrrolidin-3-yl)ethanesulfonamide]	102
CCS(=O)(=O)N[C@H]1CCN(C(=O)C(C)(C)O)[C@H]1Cc1cccc(-c2cccc(F)c2)c1F [Example 488, N-((2S,3S)-2-((2,3′-difluorobiphenyl-3-yl)methyl)-1-(2-hydroxy-2-methylpro-panoyl)pyrrolidin-3-yl)ethanesulfona-mide]	101
CC(C)OC(=O)N1CCC[C@H](NS(C)(=O)=O)[C@@H]1Cc1cccc(-c2cccc(F)c2F)c1 (relative stereo) [Example 116, isopropyl cis-2-((2′,3′-difluorobiphenyl-3-yl)methyl)-3-((methylsulfonyl)amino)piperidine-1-carboxylate]	106
CC(C)OC(=O)N1CCC[C@H](NS(C)(=O)=O)[C@@H]1Cc1cccc(-c2cc(F)ccc2F)n1 (relative stereo) [Example 100, isopropyl cis-2-((6-(2,5-difluorophenyl)pyridin-2-yl)methyl)-3-((methylsulfonyl)amino)piperidine-1-carboxylate]	107
CC(C)OC(=O)N1CCCC(NS(C)(=O)=O)C1Cc1cccc(-c2ccccc2)n1 (stereo not drawn) [Example 76, Optically Active isopropyl cis-3-((methylsulfonyl)amino)-2-((6-phenylpyridin-2-yl)methyl)piperidine-1-carboxylate]	106
CCOC(=O)N1CC[C@H](NS(C)(=O)=O)[C@@H]1Cc1cccc(-c2ccccc2)c1 [Example 101, ethyl (2S,3S)-2-(biphenyl-3-ylmethyl)-3-((methylsulfonyl)amino)pyrrolidine-1-carboxylate]	96
CC(C)C(=O)N1CC[C@H](NS(C)(=O)=O)[C@@H]1Cc1cccc(-c2cccc(F)c2)c1F (relative stereo) [Example 294, N-(cis-2-((2,3′-difluorobiphenyl-3-yl)methyl)-1-isobutyrylpyrrolidin-3-yl)methanesulfonamide]	104
CS(=O)(=O)N[C@H]1CCN(C(=O)C2CCC2)[C@H]1Cc1csc(-c2ccccc2F)n1 (relative stereo) [Example 255, N-(cis-1-(cyclobutylcarbonyl)-2-((2-(2-fluorophenyl)-1,3-thiazol-4-yl)methyl)pyrrolidin-3-yl)methanesulfonamide]	101
CN(C)C(=O)N1CC[C@H](NS(C)(=O)=O)[C@@H]1Cc1cccc(-c2cc(F)cc(F)c2)c1 [Example 366, (2S,3S)-2-((3′,5′-difluorobiphenyl-3-yl)methyl)-N,N-dimethyl-3-((methylsulfonyl)amino)pyrrolidine-1-carboxamide]	100

Results, then the compound that gave them:

OX2R agonist activity (3 μM, %) [%]	Compound
95	CN(C)C(=O)N1CCC[C@H](NS(C)(=O)=O)[C@@H]1Cc1cccc(-c2ccccc2)c1 (relative stereo) [Example 204, cis-2-(biphenyl-3-ylmethyl)-N,N-dimethyl-3-((methylsulfonyl)amino)piperidine-1-carboxamide]
102	CC(C)OC(=O)N1CCCC(NS(C)(=O)=O)C1Cc1csc(-c2ccccc2)n1 (stereo not drawn) [Example 210, Optically Active isopropyl cis-3-((methylsulfonyl)amino)-2-((2-phenyl-1,3-thiazol-4-yl)methyl)piperidine-1-carboxylate]
112	O=C(N1CCC1)N1CC[C@H](NS(=O)(=O)C2CC2)[C@@H]1Cc1cccc(-c2cccc(F)c2)c1 [Example 462, N-{(2S,3S)-1-(azetidine-1-carbonyl)-2-[(3′-fluoro[1,1′-biphenyl]-3-yl)methyl]pyrrolidin-3-yl}cyclopropanesulfonamide]
94	CS(=O)(=O)N[C@H]1CCN(C(=O)C2CCC2)[C@H]1Cc1ccc(F)c(-c2cccc(F)c2)c1 (relative stereo) [Example 304, N-(cis-1-(cyclobutylcarbonyl)-2-((3′,6-difluorobiphenyl-3-yl)methyl)pyrrolidin-3-yl)methanesulfonamide]
110	CC(C)(O)C(=O)N1CC[C@H](NS(=O)(=O)CF)[C@@H]1Cc1cccc(-c2cccc(F)c2)c1F [Example 417, N-((2S,3S)-2-((2,3′-difluorobiphenyl-3-yl)methyl)-1-(2-hydroxy-2-methylpropanoyl)pyrrolidin-3-yl)-1-fluoromethanesulfonamide]
101	CS(=O)(=O)N[C@H]1CCN(C(=O)C2CCC2)[C@H]1Cc1csc(-c2ccccc2)n1 (relative stereo) [Example 319, N-(cis-1-(cyclobutylcarbonyl)-2-((2-phenyl-1,3-thiazol-4-yl)methyl)pyrrolidin-3-yl)methanesulfonamide]
96	CC(C)OC(=O)N1CCC[C@H](NS(C)(=O)=O)[C@@H]1Cc1cccc(-c2ccccc2)n1 (relative stereo) [Example 64, isopropyl cis-3-((methylsulfonyl)amino)-2-((6-phenylpyridin-2-yl)methyl)piperidine-1-carboxylate]
75	CCOC(=O)N1CCC[C@H](NS(C)(=O)=O)[C@@H]1Cc1cccc(-c2ccccc2)n1 (relative stereo) [Example 38, ethyl cis-3-((methylsulfonyl)amino)-2-((6-phenylpyridin-2-yl)methyl)piperidine-1-carboxylate]
107	CS(=O)(=O)N[C@H]1CCN(C(=O)C2(F)CCC2)[C@H]1Cc1cccc(-c2cccc(F)c2)c1 [Example 266, N-((2S,3S)-2-((3′-fluorobiphenyl-3-yl)methyl)-1-((1-fluorocyclobutyl)carbonyl)pyrrolidin-3-yl)methanesulfonamide]
108	O=C(N1CCC1)N1CC[C@H](NS(=O)(=O)CF)[C@@H]1Cc1cccc(-c2ccccc2)c1F [Example 466, N-{(2S,3S)-1-(azetidine-1-carbonyl)-2-[(2-fluoro[1,1′-biphenyl]-3-yl)methyl]pyrrolidin-3-yl}-1-fluoromethanesulfonamide]
99	CC(C)OC(=O)N1CCC[C@H](NS(=O)(=O)C2CC2)[C@@H]1Cc1cccc(-c2ccccc2)n1 (relative stereo) [Example 178, isopropyl cis-3-((cyclopropylsulfonyl)amino)-2-((6-phenylpyridin-2-yl)methyl)piperidine-1-carboxylate]
93	CS(=O)(=O)N[C@H]1CCN(C(=O)N2CCC2)[C@H]1Cc1cccc(-c2cc(F)cc(F)c2)c1 [Example 345, N-((2S,3S)-1-(azetidin-1-ylcarbonyl)-2-((3′,5′-difluorobiphenyl-3-yl)methyl)pyrrolidin-3-yl)methanesulfonamide]
